Experimental findings from patent publication US20250066370A1, “BICYCLIC TRIAZINE DERIVATIVES FOR THE TREATMENT OF CANCER” (DEUTSCHES KREBSFORSCHUNGSZENTRUM, priority 2022, published 2025) are described below.

In assay [1] the test system is CAL-120, human breast adenocarcinoma cells. Put plainly: Proliferation assay CAL-120 (crystal violet). Type of assay: cell-based. To be noted: 96 h, CAL-120 parental cells, 4 days, median, read-out: Prolif-CAL-120, IC50 - [mol/l] (median). How it is done: Human tumour cells were originally obtained from the American Type Culture Collection (ATCC), or from the Deutsche Sammlung von Mikroorganismen und Zellkulturen (DSMZ, German Collection of Microorganisms and Cell Cultures). Cultivated tumour cells (CAL-120, human breast adenocarcinoma cells, DSMZ ACC-459; MDA-MB-231, human breast cancer cells, ATCC HTB-26) were plated at a density of 4,000 cells/well in a 96-well multitier plate in 200 microL of their respective growth medium supplemented 10% fetal calf serum. After 24 hours, the cells of one plate (zero-point plate) were stained with crystal violet (see below), while the medium of the other plates was supplemented with the test substances in various concentrations (0 micromol/L, as well as in the range of 0.01-10 micromol/L; the final concentration of the solvent dimethyl sulfoxide was adjusted to 0.1%) using a Tecan HP D300 Digital Dispenser. The cells were incubated for 4 days in the presence of test substances. Cell proliferation was determined by staining the cells with crystal violet: the cells were fixed by adding 20 microL/measuring point of an 11% glutaric aldehyde solution for 15 minutes at room temperature. After three washing cycles of the fixed cells with water, the plates were dried at room temperature. The cells were stained by adding 100 microL/measuring point of a 0.1% crystal violet solution (pH 3.0). After three washing cycles of the stained cells with water, the plates were dried at room temperature. The dye was dissolved by adding 100 microL/measuring point of a 10% acetic acid solution. The extinction was determined by photometry at a wavelength of 595 nm. The change of cell number, in percent, was calculated by normalization of the measured values to the extinction values of the zero-point plate (=0%) and the extinction of the untreated (0 μM) cells (=100%). The IC50 values (inhibitory concentration at 50% of maximal effect) were determined by means of a 4 parameter fit.

Another assay has as its target CDK9/CyclinT1 (Homo sapiens (Human), UniProt P50750). Kind of assay: CDK9/CycT1 high ATP kinase assay (TR-FRET). Type of assay: biochemical. To be noted: 2 mM ATP (high ATP); median; read-out: CDK9/CyclinT1, 2 mM ATP (high ATP), IC50 - [mol/l] (median). How it is done:
CDK9/CycT1-inhibitory activity of compounds of the present invention at a high ATP concentration after preincubation of enzyme and test compounds was quantified employing the CDK9/CycT1 TR-FRET assay as described in the following paragraphs.
Recombinant full-length His-tagged human CDK9 and CycT1, expressed in insect cells and purified by Ni-NTA affinity chromatography, were purchased from Life Technologies (Cat. No PV4131). As substrate for the kinase reaction biotinylated peptide biotin-Ttds-YISPLKSPYKISEG (C-terminus in amide form) was used which can be purchased e.g. form the company JERINI peptide technologies (Berlin, Germany).
For the assay 50 nanoL of a 100 fold concentrated solution of the test compound in DMSO was pipetted into either a black low volume 384 well microtiter plate or a black 1536 well microtiter plate (both Greiner Bio-One, Frickenhausen, Germany), 2 microL of a solution of CDK9/CycT1 in aqueous assay buffer [50 millimol/L Tris/HCl PH 8.0, 10 millimol/L MgCl2, 1.0 millimol/L dithiothreitol, 0.1 millimol/L sodium ortho-vanadate, 0.01% (v/v) Nonidet-P40 (Sigma)] were added and the mixture was incubated for 15 min at 22° C. to allow pre-binding of the test compounds to the enzyme before the start of the kinase reaction. Then the kinase reaction was started by the addition of 3 microL of a solution of adenosine-tri-phosphate (ATP, 3.3 millimol/L=>final conc. in the 5 microL assay volume is 2 millimol/L) and substrate (1.25 micromol/L=>final conc. in the 5 microL assay volume is 0.75 micromol/L) in assay buffer and the resulting mixture was incubated for a reaction time of 25 min at 22° C. The concentration of CDK9/CycT1 was adjusted depending of the activity of the enzyme lot and was chosen appropriate to have the assay in the linear range, typical concentrations were in the range of 0.5 microg/ml. The reaction was stopped by the addition of 3 microL of a solution of TR-FRET detection reagents (0.33 micromol/L streptavidine-XL665 [Cisbio Bioassays, Codolet, France] and 1.67 nanomol/L anti-RB (pSer807/pSer811)-antibody from BD Pharmingen [#558389] and 2 nanomol/L LANCE EU-W1024 labeled anti-mouse IgG antibody [Perkin-Elmer, product no. AD0077]) in an aqueous EDTA-solution (167 millimol/L EDTA, 0.2% (w/v) bovine serum albumin in 100 millimol/L HEPES pH 7.5).
The resulting mixture was incubated 1 h at 22° C. to allow the formation of complex between the phosphorylated biotinylated peptide and the detection reagents. Subsequently the amount of phosphorylated substrate was evaluated by measurement of the resonance energy transfer from the Eu-chelate to the streptavidine-XL. Therefore, the fluorescence emissions at 620 nm and 665 nm after excitation at 350 nm was measured in a TR-FRET reader, e.g. a Pherastar (BMG Labtechnologies, Offenburg, Germany) or a Viewlux (Perkin-Elmer). The ratio of the emissions at 665 nm and at […] was taken as the measure for the amount of phosphorylated substrate. The data were normalised (enzyme reaction without inhibitor=0% inhibition, all other assay components but no enzyme=100% inhibition).
Background: Time-resolved FRET reads energy transfer from a long-lived donor to a nearby acceptor.

The target in another assay is CDK12 (Homo sapiens (Human), UniProt Q9NYV4). Kind of assay: CDK12 nuclear protein level: immunofluorescence/high content analysis in CAL-120 cells. Type of assay: cell-based. To be noted: 24 h, nuclear CDK12 staining intensity, median, read-out: CDK12 degradation IF, DC50 - [mol/l] (median). How it is done: In the context of the present invention, the term “DC50 CDK12” refers to the DC50 values obtained according to the assay described in this section (7) herein below, i.e. the DC50 values for the degradation of CDK12.
Sequence of CDK12 (Q9NYV4 whole entry): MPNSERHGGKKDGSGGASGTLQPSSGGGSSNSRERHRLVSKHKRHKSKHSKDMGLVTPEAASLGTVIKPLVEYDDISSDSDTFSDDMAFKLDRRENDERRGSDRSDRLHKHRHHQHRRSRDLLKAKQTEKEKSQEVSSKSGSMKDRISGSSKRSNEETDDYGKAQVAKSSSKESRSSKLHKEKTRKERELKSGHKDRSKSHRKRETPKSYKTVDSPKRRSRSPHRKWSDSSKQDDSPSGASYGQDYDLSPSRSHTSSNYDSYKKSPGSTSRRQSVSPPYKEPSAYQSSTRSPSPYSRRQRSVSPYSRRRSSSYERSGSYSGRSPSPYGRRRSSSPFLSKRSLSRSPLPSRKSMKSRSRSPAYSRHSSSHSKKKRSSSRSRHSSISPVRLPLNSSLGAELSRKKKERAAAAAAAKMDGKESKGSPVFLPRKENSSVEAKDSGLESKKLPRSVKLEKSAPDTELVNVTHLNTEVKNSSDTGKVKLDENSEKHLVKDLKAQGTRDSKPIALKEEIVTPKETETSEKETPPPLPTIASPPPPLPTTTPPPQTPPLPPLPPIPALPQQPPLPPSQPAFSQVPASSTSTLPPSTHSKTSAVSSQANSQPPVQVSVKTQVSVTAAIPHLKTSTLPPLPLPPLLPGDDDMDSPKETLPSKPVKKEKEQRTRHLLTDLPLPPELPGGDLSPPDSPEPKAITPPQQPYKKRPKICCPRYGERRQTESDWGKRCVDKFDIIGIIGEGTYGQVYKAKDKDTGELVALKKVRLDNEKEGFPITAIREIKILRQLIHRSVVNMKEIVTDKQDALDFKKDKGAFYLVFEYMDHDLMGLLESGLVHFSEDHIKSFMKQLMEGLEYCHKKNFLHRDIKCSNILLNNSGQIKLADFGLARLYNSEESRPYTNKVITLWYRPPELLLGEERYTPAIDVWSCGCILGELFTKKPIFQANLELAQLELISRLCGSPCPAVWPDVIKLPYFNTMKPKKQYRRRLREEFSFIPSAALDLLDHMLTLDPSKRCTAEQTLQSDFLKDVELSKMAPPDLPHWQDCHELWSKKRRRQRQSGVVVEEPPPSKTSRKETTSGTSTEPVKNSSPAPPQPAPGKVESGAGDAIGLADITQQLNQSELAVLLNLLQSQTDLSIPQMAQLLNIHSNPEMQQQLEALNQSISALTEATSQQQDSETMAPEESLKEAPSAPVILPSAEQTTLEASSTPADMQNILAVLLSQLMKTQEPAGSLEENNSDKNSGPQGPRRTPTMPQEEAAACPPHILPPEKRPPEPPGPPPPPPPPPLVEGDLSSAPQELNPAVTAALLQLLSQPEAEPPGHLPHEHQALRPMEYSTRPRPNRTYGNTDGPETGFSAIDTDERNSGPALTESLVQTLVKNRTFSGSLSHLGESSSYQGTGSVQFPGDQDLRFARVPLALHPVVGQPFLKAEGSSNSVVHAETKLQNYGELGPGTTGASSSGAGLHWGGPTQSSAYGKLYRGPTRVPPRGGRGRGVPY
Sequence of CDK12 (O75909 whole entry partner): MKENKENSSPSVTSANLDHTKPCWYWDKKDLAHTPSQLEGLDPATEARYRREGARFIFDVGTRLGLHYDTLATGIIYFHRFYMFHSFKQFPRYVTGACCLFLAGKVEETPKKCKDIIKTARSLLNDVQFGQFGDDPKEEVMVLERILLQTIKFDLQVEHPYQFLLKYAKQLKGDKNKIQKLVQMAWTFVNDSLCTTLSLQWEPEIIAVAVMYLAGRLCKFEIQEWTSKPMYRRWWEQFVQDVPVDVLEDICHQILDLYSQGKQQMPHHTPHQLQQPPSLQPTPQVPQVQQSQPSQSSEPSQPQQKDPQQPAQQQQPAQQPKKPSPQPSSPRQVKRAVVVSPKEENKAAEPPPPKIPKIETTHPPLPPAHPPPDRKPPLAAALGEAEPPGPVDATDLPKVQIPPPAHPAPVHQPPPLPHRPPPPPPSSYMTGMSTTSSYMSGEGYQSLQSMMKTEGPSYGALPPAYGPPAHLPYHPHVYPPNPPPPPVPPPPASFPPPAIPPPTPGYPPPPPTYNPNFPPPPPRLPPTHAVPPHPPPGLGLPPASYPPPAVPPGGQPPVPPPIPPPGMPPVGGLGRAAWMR
CAL-120 human breast cancer cells (DSMZ ACC 459) are seeded in 1536-well microtiter plates (800 cells per well) containing 50 nanoL of compounds in Dose-Response. Control wells received DMSO or Example 4. Plates are then incubated for 24 h at 37° C. in an humidified incubator and fixed with 4% PFA for 10 min. Then immunofluorescence (IF) against CDK12 (CellSignalling CDK12 Antibody #11973, rabbit, 1:100 dilution) is performed using standard IF protocols. Cells are then stained with Hoechst 33342 (Life Technologies, H-1399, 0.1 microg/ml) and imaged on an automated confocal microscopy system (e.g. Perkin Elmer Opera Phenix). Nuclear and cytoplasmic intensity as well as the nuclear/cytoplasmic intensity ratio is determined by automated image analysis using custom generated scripts (MetaXpress). Data is then transferred to Genedata Screener software, normalized to DMSO and control and DC50 values (degrading concentration to achieve 50% reduction of nuclear CDK12 staining intensity relative to controls) are reported.

Sequence of CDK9/CyclinT1 (P50750 whole entry): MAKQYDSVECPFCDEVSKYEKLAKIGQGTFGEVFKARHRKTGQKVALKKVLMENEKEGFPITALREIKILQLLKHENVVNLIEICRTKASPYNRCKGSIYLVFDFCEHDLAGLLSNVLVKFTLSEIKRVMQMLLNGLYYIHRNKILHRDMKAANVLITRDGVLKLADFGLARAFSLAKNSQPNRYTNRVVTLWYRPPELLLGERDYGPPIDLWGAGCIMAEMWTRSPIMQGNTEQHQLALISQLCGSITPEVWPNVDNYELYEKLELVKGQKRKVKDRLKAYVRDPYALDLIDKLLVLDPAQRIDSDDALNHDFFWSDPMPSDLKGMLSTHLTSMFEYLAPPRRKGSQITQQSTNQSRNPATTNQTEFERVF
Sequence of CDK9/CyclinT1 (O60563 whole entry partner): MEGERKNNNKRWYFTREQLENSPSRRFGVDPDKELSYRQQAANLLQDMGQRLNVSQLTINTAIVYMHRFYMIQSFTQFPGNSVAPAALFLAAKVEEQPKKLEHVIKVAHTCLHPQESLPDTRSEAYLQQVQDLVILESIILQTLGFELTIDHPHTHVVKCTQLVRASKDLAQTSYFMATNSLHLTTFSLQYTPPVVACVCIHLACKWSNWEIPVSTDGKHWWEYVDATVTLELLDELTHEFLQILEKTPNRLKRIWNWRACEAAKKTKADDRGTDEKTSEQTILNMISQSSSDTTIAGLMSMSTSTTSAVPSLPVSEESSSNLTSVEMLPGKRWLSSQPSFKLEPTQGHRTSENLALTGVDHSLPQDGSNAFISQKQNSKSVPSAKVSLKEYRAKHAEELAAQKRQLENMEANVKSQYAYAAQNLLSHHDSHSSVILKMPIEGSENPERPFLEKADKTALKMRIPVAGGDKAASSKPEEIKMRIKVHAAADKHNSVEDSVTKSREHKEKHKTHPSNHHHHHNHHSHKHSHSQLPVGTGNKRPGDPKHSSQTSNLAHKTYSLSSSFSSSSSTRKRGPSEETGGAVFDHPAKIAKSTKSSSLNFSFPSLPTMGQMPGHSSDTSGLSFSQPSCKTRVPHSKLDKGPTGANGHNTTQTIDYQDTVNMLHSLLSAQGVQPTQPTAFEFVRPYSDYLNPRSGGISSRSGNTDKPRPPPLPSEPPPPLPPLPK

For `FC(F)(F)Oc1ccc(-c2cnc(CNc3nc(N4CCOCC4)nc4c(C(F)(F)F)cnn34)[nH]2)cc1` [Example 10, 2-(morpholin-4-yl)-N-({5-[4-(trifluoromethoxy)phenyl]-1H-imidazol-2-yl}methyl)-8-(trifluoromethyl)pyrazolo[1,5-a][1,3,5]triazin-4-amine], the IC50 is 69.8 nM in assay [1] and more than 20000 nM at CDK9/CyclinT1. Besides, on CDK12, the DC50 was more than 1000 nM.

`FC(F)(F)c1ccc(-c2nnc(CNc3nc(N4CCOCC4)nn4c(C(F)(F)F)cnc34)[nH]2)cc1` [Example 11, 2-(morpholin-4-yl)-7-(trifluoromethyl)-N-({5-[4-(trifluoromethyl)phenyl]-4H-1,2,4-triazol-3-yl}methyl)imidazo[2,1-f][1,2,4]triazin-4-amine]: the IC50 is 419 nM in assay [1] and more than 20000 nM on CDK9/CyclinT1. Besides, the DC50 at CDK12 came out at 920 nM.

Consider `FC(F)(F)c1ccc(-c2cnc(CNc3nc(N4CCOCC4)nn4c(C(F)(F)F)cnc34)[nH]2)cn1` [Example 12, 2-(morpholin-4-yl)-7-(trifluoromethyl)-N-({5-[6-(trifluoromethyl)pyridin-3-yl]-1H-imidazol-2-yl}methyl)imidazo[2,1-f][1,2,4]triazin-4-amine], for which the results for the IC50 (in assay [1]; on CDK9/CyclinT1) were 14.8 nM and more than 20000 nM, respectively. The DC50 on CDK12 is more than 1000 nM.

Take `FC(F)(F)Oc1ccc(-c2nnc(CNc3nc(N4CCOCC4)nn4c(C(F)(F)F)cnc34)[nH]2)cc1` [Example 14, 2-(morpholin-4-yl)-N-({5-[4-(trifluoromethoxy)phenyl]-4H-1,2,4-triazol-3-yl}methyl)-7-(trifluoromethyl)imidazo[2,1-f][1,2,4]triazin-4-amine]: the figures for the IC50 (in assay [1]; on CDK9/CyclinT1) were 248 nM and more than 20000 nM, respectively. The DC50 on CDK12 is 665 nM.

For the compound `FC(F)(F)c1ccc(-c2nnc(CNc3nc(N4CCOCC4)nn4c(C(F)(F)F)cnc34)[nH]2)cn1` [Example 20, 2-(morpholin-4-yl)-7-(trifluoromethyl)-N-({5-[6-(trifluoromethyl)pyridin-3-yl]-4H-1,2,4-triazol-3-yl}methyl)imidazo[2,1-f][1,2,4]triazin-4-amine], the IC50 turned out to be 83.5 nM in assay [1] and 847 nM at CDK9/CyclinT1. The DC50 at CDK12 was more than 1000 nM.

Take `COc1ccc(-c2cnc(CNc3nc(N4CCOCC4)nc4c(C(F)(F)F)cnn34)[nH]2)cn1` [Example 21, N-{[5-(6-methoxypyridin-3-yl)-1H-imidazol-2-yl]methyl}-2-(morpholin-4-yl)-8-(trifluoromethyl)pyrazolo[1,5-a][1,3,5]triazin-4-amine]: the results for the IC50 (in assay [1]; on CDK9/CyclinT1) were 99 nM and 3050 nM, respectively. The DC50 at CDK12 is more than 1000 nM.

On to `Cc1ccc(-c2nnc(CNc3nc(N4CCOCC4)nc4c(C(F)(F)F)cnn34)[nH]2)cn1` [Example 22, N-{[5-(6-methylpyridin-3-yl)-4H-1,2,4-triazol-3-yl]methyl}-2-(morpholin-4-yl)-8-(trifluoromethyl)pyrazolo[1,5-a][1,3,5]triazin-4-amine], for which the IC50 in assay [1] stood at 333 nM; at CDK9/CyclinT1 it was 1890 nM. Moreover, the DC50 on CDK12 is more than 1000 nM.

Regarding `Cc1ccc(-c2nnc(CNc3nc(N4CCOCC4)nn4c(C(F)(F)F)cnc34)[nH]2)cn1` [Example 23, N-{[5-(6-methylpyridin-3-yl)-4H-1,2,4-triazol-3-yl]methyl}-2-(morpholin-4-yl)-7-(trifluoromethyl)imidazo[2,1-f][1,2,4]triazin-4-amine], the IC50 in assay [1] was determined as 99.3 nM; on CDK9/CyclinT1, 624 nM. For the same compound, the DC50 on CDK12 is more than 1000 nM.
